According to patent publication US20070066627A1, “Hydrazone derivatives for combatting harmful insects and arachnids” (priority 2004, published 2007):

Key:
Type in all cases: in vivo
[1] = system: 2-Spotted Spider Mite (tetranychus urticae, OP-Resistant Strain); test: 2-spotted spider mite test on Sieva lima bean plants; details: 120 h, plants dipped, after 5 days, read-out: mortality compared to untreated controls
Protocol: 2.6 2-Spotted Spider Mite (tetranychus urticae, OP-Resistant Strain)
Sieva lima bean plants with primary leaves expanded to 7-12 cm were infested by placing on each a small piece from an infested leaf (with about 100 mites) taken from the main colony. This was done at about 2 hours before treatment to allow the mites to move over to the test plant to lay eggs. The piece of leaf used to transfer the mites was removed. The newly-infested plants were dipped in the test solution and allowed to dry. The test plants were kept under fluorescent light (24 hour photoperiod) at about 25° C. and 20-40% relative humidity. After 5 days, one leaf was removed and mortality counts were made.

[2] = system: Orchid Thrips (dichromothrips corbetti); test: Orchid thrips floral-immersion test; details: 96 h, adults, after 4 days, read-out: mortality compared to untreated controls
Protocol: 2.7 Orchid Thrips (dichromothrips corbetti)
Dichromothrips corbetti adults used for bioassay were obtained from a colony maintained continuously under laboratory conditions. For testing purposes, the test compound was diluted to a concentration of 500 ppm (wt compound:vol diluent) in a 1:1 mixture of acetone:water, plus 0.01% Kinetic® surfactant.
Thrips potency of each compound was evaluated by using a floral-immersion technique. Plastic petri dishes were used as test arenas. All petals of individual, intact orchid flowers were dipped into treatment solution for approximately 3 seconds and allowed to dry for 2 hours. Treated flowers were placed into individual petri dishes along with 10-15 adult thrips. The petri dishes were then covered with lids. All test arenas were held under continuous light and a temperature of about 28° C. for duration of the assay. After 4 days, the numbers of live thrips were counted on each flower, and along inner walls of each petri dish. The level of thrips mortality was extrapolated from pretreatment thrips numbers.

[3] = system: Cotton Aphid (aphis gossypii); test: Cotton aphid test on cotton cotyledons; details: 120 h, cotyledons dipped, after 5 days, read-out: mortality in comparison with untreated controls
Source text: 2.2 Cotton Aphid (aphis gossypii)
(§1) The active compounds were formulated in 50:50 acetone:water and 100 ppm Kinetic® surfactant.
Cotton plants at the cotyledon stage (one plant per pot) were infested by placing a heavily infested leaf from the main colony on top of each cotyledon. The aphids were allowed to transfer to the host plant overnight, and the leaf used to transfer the aphids was removed. The cotyledons were dipped in the test solution and allowed to dry. After 5 days, mortality counts were made.

[4] = system: Silverleaf Whitefly (bemisia argentifolii); test: Silverleaf whitefly test on cotton plants; details: 72 h, cotyledons dipped, adults, 3 days after treatment, read-out: mortality compared to untreated controls
Protocol: 2.5 Silverleaf Whitefly (bemisia argentifolii)
as §1
Selected cotton plants were grown to the cotyledon state (one plant per pot). The cotyledons were dipped into the test solution to provide complete coverage of the foliage and placed in a well-vented area to dry. Each pot with treated seedling was placed in a plastic cup and 10 to 12 whitefly adults (approximately 3-5 day old) were introduced. The insects were collected using an aspirator and an 0.6 cm, non-toxic Tygon® tubing (R-3603) connected to a barrier pipette tip. The tip, containing the collected insects, was then gently inserted into the soil containing the treated plant, allowing insects to crawl out of the tip to reach the foliage for feeding. The cups were covered with a reusable screened lid (150 micron mesh polyester screen PeCap from Tetko Inc). Test plants were maintained in the holding room at about 25° C. and 20-40% relative humidity for 3 days avoiding direct exposure to the fluorescent light (24 hour photoperiod) to prevent trapping of heat inside the cup. Mortality was assessed 3 days after treatment of the plants.

[5] = system: Southern Armyworm (Spodoptera eridania), 2nd Instar Larvae; test: Southern armyworm leaf-dip test, 2nd instar larvae; details: foliar, 120 h, observation at 5 days, read-out: mortality in comparison with untreated controls
Protocol: 2.1 Southern Armyworm (Spodoptera eridania), 2nd Instar Larvae
The active compounds were formulated for testing the activity against insects and arachnids as a 10.000 ppm solution in a mixture of 35% acetone and water, which was diluted with water, if needed.
A Sieva lima bean leaf expanded to 78 cm in length is dipped in the test solution with agitation for 3 seconds and allowed to dry in a hood. The leaf is then placed in a 100×10 mm petri dish containing a damp filter paper on the bottom and ten 2nd instar caterpillars. At 5 days, observations are made of mortality, reduced feeding, or any interference with normal molting.

Compound | mortality at 300 ppm [1] | further results
CC(C=NNC(=O)Cc1cccc2ccccc12)=Cc1cccc(F)c1 [Compound 21] | > 75% | –
CC(C=NNC(=O)c1ccc(C)s1)=Cc1ccc(OC(F)F)cc1 [Compound 91] | > 75% | –
O=C(NN=CC=Cc1ccccc1)c1ccc(Cl)s1 [Compound 96] | > 75% | –
CC(C=NNC(=O)c1[nH]cnc1C)=Cc1ccc(Cl)cc1Cl [Compound 138] | > 75% | –
CC(C=NNC(=O)c1[nH]cnc1C)=Cc1cccc(F)c1 [Compound 144] | – | mortality at 500 ppm [2]: > 95%
CC(C=NNC(=O)c1ccccn1)=Cc1ccccc1 [Compound 156] | – | mortality at 300 ppm [3]: > 75%; mortality at 300 ppm [4]: > 80%
CC(C=NNC(=O)c1ccc(C)cc1)=Cc1ccccc1 [Compound 183] | > 75% | mortality at 300 ppm [5]: > 80%; mortality at 300 ppm [4]: > 80%
